The source of these data is PubChem BioAssay (NCI).

Test systems include HS 578T breast; MDA-MB-435; NCI/ADR-RES ovarian; MCF7 breast; BT-549 breast; MDA-MB-231 breast.
Holding throughout (experiment): DTP human tumour cell line panel, 48 h

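Method: 48-hour compound exposure of cells in 96-well plates, five concentrations, linear interpolation of endpoints. At the GI50, growth is halved. TGI is the concentration that stops growth completely.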

Usually GI50 stands for the concentration giving 50% growth inhibition. In general, TGI refers to the concentration at which net growth stops. A higher TGI goes with less potent growth arrest. Consider `O=Nc1c(-c2c(O)[nH]c3ccc([N+](=O)[O-])cc23)[nH]c2ccc(O)cc12`, for which the GI50 in the assay with HS 578T breast was 0.345 µM; in the assay on MDA-MB-435, 0.406 µM; in the assay with NCI/ADR-RES ovarian it was 1.44 µM; in the assay on MCF7 breast, 0.247 µM; in the assay on BT-549 breast, 0.463 µM; in the assay with MDA-MB-231 breast, 0.5 µM. Besides, the total growth inhibition concentration (TGI) with HS 578T breast is more than 100 µM; in the assay on MDA-MB-435 it was more than 57.8 µM; with NCI/ADR-RES ovarian, more than 100 µM; in the assay with MCF7 breast it was more than 100 µM; in the assay on BT-549 breast, more than 100 µM; in the assay with MDA-MB-231 breast, more than 52.7 µM.

With `CCn1c(C(=O)N(C2CC2)C2CC2)cc2c3c(ncn3C)c(Nc3cc(C)n(C)n3)nc21`, the GI50 was 3.63 µM with HS 578T breast; more than 100 µM with MDA-MB-435; more than 100 µM in the assay on NCI/ADR-RES ovarian; more than 100 µM with MCF7 breast; more than 100 µM with BT-549 breast; 35.5 µM in the assay with MDA-MB-231 breast. For the same molecule, the TGI in the assay with HS 578T breast, in the assay on MDA-MB-435, with NCI/ADR-RES ovarian, with MCF7 breast, with BT-549 breast and with MDA-MB-231 breast was more than 100 µM in each case.

`COc1ccc(Nc2ncc(Br)c(NCCCNC(=O)C3CCC3)n2)cc1`: the GI50 in the assay with HS 578T breast is 3.23 µM; in the assay with MDA-MB-435, 36.1 µM; in the assay on NCI/ADR-RES ovarian, 19 µM; with MCF7 breast it was 16.1 µM; in the assay with BT-549 breast, 3.62 µM; with MDA-MB-231 breast, 5.06 µM. For the same molecule, the TGI was 9.2 µM in the assay on HS 578T breast; more than 100 µM in the assay with MDA-MB-435; 80.5 µM in the assay with NCI/ADR-RES ovarian; 67.5 µM in the assay with MCF7 breast; 15.9 µM in the assay on BT-549 breast; 60.3 µM in the assay on MDA-MB-231 breast.

In the case of `CCOC(=O)C1=C(C(=O)c2ccc(C)cc2)C(c2cccc([N+](=O)[O-])c2)C(C(=O)c2ccc(C)cc2)=C(C(=O)OCC)N1`, the TGI is 63.9 µM with HS 578T breast; 33.2 µM in the assay with MDA-MB-435; 39.2 µM in the assay with NCI/ADR-RES ovarian; more than 100 µM in the assay with MCF7 breast; more than 100 µM in the assay with BT-549 breast; 29 µM in the assay with MDA-MB-231 breast.

As to `O=C1c2ccc([N+](=O)[O-])cc2-c2c1c1ccccc1c(=O)n2CCCNCCCNCCCn1c2c(c3ccc([N+](=O)[O-])cc3c1=O)C(=O)c1ccccc1-2`, the GI50 in the assay on HS 578T breast was 1.43 µM; in the assay on MDA-MB-435, 3.88 µM; in the assay on NCI/ADR-RES ovarian it was 7.51 µM; in the assay on MCF7 breast it was 0.961 µM; with BT-549 breast, 4.91 µM; in the assay on MDA-MB-231 breast, 0.407 µM. For the same molecule, the TGI was 22.7 µM with HS 578T breast; more than 46.6 µM in the assay on MDA-MB-435; 63.5 µM with NCI/ADR-RES ovarian; 4.55 µM with MCF7 breast; 37.2 µM in the assay with BT-549 breast; 2.85 µM in the assay on MDA-MB-231 breast.

For the molecule `CN1CCN(c2ccc(NC(=O)c3nc4ccc5[nH]ncc5c4c4c3CCCC4)cc2C(F)(F)F)CC1`, the GI50 with HS 578T breast was 5.99 µM; in the assay with MDA-MB-435, 0.899 µM; in the assay with NCI/ADR-RES ovarian it was 1.27 µM; with MCF7 breast, 0.964 µM; in the assay on BT-549 breast it was 6.07 µM; in the assay with MDA-MB-231 breast, 0.941 µM. For the same molecule, the TGI in the assay on HS 578T breast came to 19.4 µM; in the assay with MDA-MB-435, 1.74 µM; in the assay with NCI/ADR-RES ovarian, 4.21 µM; in the assay on MCF7 breast it was 2.32 µM; in the assay on BT-549 breast, 12.4 µM; with MDA-MB-231 breast it was 1.72 µM.

In the case of `CC1(C)CC[C@H](Nc2ncc(C(F)(F)F)c(-c3c[nH]c4c(P(C)(C)=O)c(C#N)ccc34)n2)CN1`, the GI50 with HS 578T breast was 0.736 µM; with MDA-MB-435, 0.038 µM; in the assay with NCI/ADR-RES ovarian it was 3.18 µM; in the assay with MCF7 breast it was less than 0.0137 µM; in the assay on BT-549 breast it was 0.0758 µM; in the assay on MDA-MB-231 breast, 0.4 µM. For the same molecule, the TGI with HS 578T breast turned out to be 10.6 µM; with MDA-MB-435, 12 µM; in the assay with NCI/ADR-RES ovarian it was 27.6 µM; in the assay on MCF7 breast it was 10.2 µM; with BT-549 breast, 3.67 µM; in the assay with MDA-MB-231 breast, 9.08 µM.

On to `C=CCN(/C=C1/C(=O)O[C@H](COC)[C@@]2(C)C1=C(O)C(=O)C1=C2[C@H](OC(C)=O)C[C@]2(C)C(=O)CC[C@@H]12)CC=C`, for which the GI50 was 0.128 µM in the assay with HS 578T breast; 2.68 µM with MDA-MB-435; more than 4.75 µM in the assay on NCI/ADR-RES ovarian; 0.435 µM with MCF7 breast; 0.141 µM with BT-549 breast; 6.23 µM with MDA-MB-231 breast. In addition, the TGI with HS 578T breast was 1.94 µM; in the assay on MDA-MB-435, more than 10 µM; in the assay with NCI/ADR-RES ovarian it was more than 10 µM; in the assay with MCF7 breast, more than 10 µM; in the assay with BT-549 breast it was 4.12 µM; in the assay with MDA-MB-231 breast, more than 10 µM.

With `O=C(c1ccc2ccccc2c1)c1c(C(F)(F)F)n([O-])c2cc(F)c(F)cc2[n+]1=O`, the GI50 is 1.96 µM with MDA-MB-435; 2.93 µM with NCI/ADR-RES ovarian; 3.11 µM in the assay with MCF7 breast; 1.89 µM in the assay with BT-549 breast; 1.86 µM in the assay with MDA-MB-231 breast. Also, the TGI with MDA-MB-435 is 4.12 µM; in the assay with NCI/ADR-RES ovarian, 11.2 µM; in the assay with MCF7 breast it was more than 100 µM; with BT-549 breast, 4.17 µM; with MDA-MB-231 breast, 3.99 µM.
